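These data come from cells grown in 96-well plates and exposed to compound for 48 hours at five concentrations. Abbreviation: GI50, concentration required for 50% inhibition of growth. Definition used: TGI = concentration required for complete inhibition of growth.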 *1 amine or outer side, *2 acyl side, *3 side chain or, on linkers, in order; H or OH if unused. Where a SMILES comes first, the peptide text is derived from it. [ ]: non-standard residue; d: D form. The star is where a group is joined. X11 = C/C=C/CC(C)C(O)[C@H](N[*:1])C(=O)[*:2]; Leu(ol) = CC(C)C[C@H](N)CO; Iva = CC[C@](C)(N)C(=O)O; Octanoyl = CCCCCCCC(=O)*; Aib = CC(C)(N)C(=O)O
Legend:
Assay in all cases: growth of human tumour cells (NCI), 48 h
[1] = tested on: 786-0 renal
[2] = tested on: A498 renal
[3] = tested on: A549 NSCLC
[4] = tested on: ACHN renal
[5] = tested on: BT-549 breast
[6] = tested on: CAKI-1 renal
[7] = tested on: CCRF-CEM leukemia
[8] = tested on: COLO 205 colon
[9] = tested on: DU-145 prostate
[10] = tested on: EKVX NSCLC
[11] = tested on: HCC-2998 colon
[12] = tested on: HCT-116 colon
[13] = tested on: HCT-15 colon
[14] = tested on: HL-60(TB) leukemia
[15] = tested on: HOP-62 NSCLC
[16] = tested on: HS 578T breast
[17] = tested on: HT29 colon
[18] = tested on: IGROV1 ovarian
[19] = tested on: K-562 leukemia
[20] = tested on: KM12 colon
[21] = tested on: LOX IMVI melanoma
[22] = tested on: M14 melanoma
[23] = tested on: MALME-3M melanoma
[24] = tested on: MCF7 breast
[25] = tested on: MDA-MB-231 breast
[26] = tested on: MDA-MB-435
[27] = tested on: MOLT-4 leukemia
[28] = tested on: NCI-H226 lung
[29] = tested on: NCI-H460 lung
[30] = tested on: NCI-H522 lung
[31] = tested on: NCI/ADR-RES ovarian
[32] = tested on: OVCAR-3 ovarian
[33] = tested on: OVCAR-4 ovarian
[34] = tested on: OVCAR-5 ovarian
[35] = tested on: OVCAR-8 ovarian
[36] = tested on: PC-3 prostate
[37] = tested on: RPMI-8226 leukemia
[38] = tested on: RXF 393 renal
[39] = tested on: SF-268 CNS
[40] = tested on: SF-295 CNS
[41] = tested on: SF-539 CNS
[42] = tested on: SK-MEL-2 melanoma
[43] = tested on: SK-MEL-28 melanoma
[44] = tested on: SK-MEL-5 melanoma
[45] = tested on: SK-OV-3 ovarian
[46] = tested on: SN12C renal
[47] = tested on: SNB-19 CNS
[48] = tested on: SNB-75 CNS
[49] = tested on: SR leukemia
[50] = tested on: SW-620 colon
[51] = tested on: T-47D breast
[52] = tested on: TK-10 renal
[53] = tested on: U251 CNS
[54] = tested on: UACC-257 melanoma
[55] = tested on: UACC-62 melanoma
[56] = tested on: UO-31 renal
[57] = tested on: HOP-92 NSCLC
[58] = tested on: NCI-H23 lung

C/C=C/CC(C)C(O)[C@H](NC(=O)[C@@H]1CCCN1C(=O)C(C)(C)NC(=O)CCCCCCC)C(=O)N[C@@](C)(CC)C(=O)N[C@@H](CCC(N)=O)C(=O)N[C@H](CCC(N)=O)C(=O)NC(C)(C)C(=O)NC(C)(C)C(=O)N[C@@H](CCC(N)=O)C(=O)N[C@H](CC(C)C)C(=O)N[C@H](CO)CC(C)C (stereo partly drawn) (Octanoyl-[Aib]P[X11][Iva]Q[dQ][Aib][Aib]Q[dL][Leu(ol)])
GI50 [1]: 2.71 µM
TGI [1]: 7.6 µM
GI50 [2]: 2.74 µM
TGI [2]: 7.25 µM
GI50 [3]: 5.12 µM
TGI [3]: 21 µM
GI50 [4]: 7.45 µM
TGI [4]: 19.9 µM
GI50 [5]: 2.01 µM
TGI [5]: 3.63 µM
GI50 [6]: 4.89 µM
TGI [6]: 18.4 µM
GI50 [7]: 2.35 µM
TGI [7]: 5.63 µM
GI50 [8]: 2.03 µM
TGI [8]: 4.04 µM
GI50 [9]: 2.15 µM
TGI [9]: 4.61 µM
GI50 [10]: 2.83 µM
TGI [10]: 9.74 µM
GI50 [11]: 3 µM
TGI [11]: 10.1 µM
GI50 [12]: 4.11 µM
TGI [12]: 16 µM
GI50 [13]: 5.2 µM
TGI [13]: 18.2 µM
GI50 [14]: 1.74 µM
TGI [14]: 3.86 µM
GI50 [15]: 3.16 µM
TGI [15]: 11.2 µM
GI50 [16]: 2.45 µM
TGI [16]: 6.8 µM
GI50 [17]: 7.35 µM
TGI [17]: 20.6 µM
GI50 [18]: 6.83 µM
TGI [18]: 20.3 µM
GI50 [19]: 1.85 µM
TGI [19]: 3.52 µM
GI50 [20]: 2.16 µM
TGI [20]: 4.77 µM
GI50 [21]: 3.56 µM
TGI [21]: 13.6 µM
GI50 [22]: 2.66 µM
TGI [22]: 7.2 µM
GI50 [23]: 1.96 µM
TGI [23]: 4.68 µM
GI50 [24]: 2.95 µM
TGI [24]: 10.7 µM
GI50 [25]: 3.16 µM
TGI [25]: 10.1 µM
GI50 [26]: 1.93 µM
TGI [26]: 3.83 µM
GI50 [27]: 2.43 µM
TGI [27]: 5.62 µM
GI50 [28]: 2.25 µM
TGI [28]: 5.92 µM
GI50 [29]: 3.89 µM
TGI [29]: 13.1 µM
GI50 [30]: 2.27 µM
TGI [30]: 6.34 µM
GI50 [31]: 8.82 µM
TGI [31]: 22.4 µM
GI50 [32]: 10.6 µM
TGI [32]: 24 µM
GI50 [33]: 10.4 µM
TGI [33]: 24.1 µM
GI50 [34]: 5.64 µM
TGI [34]: 18.7 µM
GI50 [35]: 3.16 µM
TGI [35]: 12.3 µM
GI50 [36]: 2.34 µM
TGI [36]: 6.75 µM
GI50 [37]: 2.38 µM
TGI [37]: 5.28 µM
GI50 [38]: 1.79 µM
TGI [38]: 3.37 µM
GI50 [39]: 2.96 µM
TGI [39]: 10.2 µM
GI50 [40]: 2.27 µM
TGI [40]: 5.61 µM
GI50 [41]: 1.95 µM
TGI [41]: 4.14 µM
GI50 [42]: 6.7 µM
TGI [42]: 19.4 µM
GI50 [43]: 1.81 µM
TGI [43]: 3.38 µM
GI50 [44]: 1.85 µM
TGI [44]: 3.52 µM
GI50 [45]: 10.7 µM
TGI [45]: 23.9 µM
GI50 [46]: 3.12 µM
TGI [46]: 11.6 µM
GI50 [47]: 3.95 µM
TGI [47]: 14.6 µM
GI50 [48]: 1.42 µM
TGI [48]: 3.24 µM
GI50 [49]: 1.79 µM
TGI [49]: 3.64 µM
GI50 [50]: 6.91 µM
TGI [50]: 20.2 µM
GI50 [51]: 4.34 µM
TGI [51]: 20.3 µM
GI50 [52]: 4.54 µM
TGI [52]: 15 µM
GI50 [53]: 1.74 µM
TGI [53]: 3.2 µM
GI50 [54]: 1.8 µM
TGI [54]: 3.75 µM
GI50 [55]: 3.02 µM
TGI [55]: 11.2 µM
GI50 [56]: 3.1 µM
TGI [56]: 14.9 µM

COc1ccc([C@@H]2C(=O)N(c3cc(OC)c(OC)c(OC)c3)[C@H]2c2ccc(OC)c(O)c2)cc1
GI50 [1]: 0.0762 µM
TGI [1]: > 100 µM
GI50 [2]: 8.56 µM
TGI [2]: > 100 µM
GI50 [3]: 0.0438 µM
TGI [3]: > 100 µM
GI50 [4]: 0.0847 µM
TGI [4]: 32.4 µM
GI50 [5]: 0.0555 µM
TGI [5]: 3.2 µM
GI50 [6]: 0.0681 µM
TGI [6]: > 100 µM
GI50 [7]: 0.0356 µM
TGI [7]: > 100 µM
GI50 [8]: 0.0546 µM
TGI [8]: 0.205 µM
GI50 [9]: 0.0596 µM
TGI [9]: > 100 µM
GI50 [10]: 0.0498 µM
TGI [10]: > 100 µM
GI50 [11]: 0.259 µM
TGI [11]: 18.5 µM
GI50 [12]: 0.0353 µM
TGI [12]: > 100 µM
GI50 [13]: 0.0348 µM
TGI [13]: > 100 µM
GI50 [14]: 0.0214 µM
TGI [14]: 0.0527 µM
GI50 [15]: 0.0411 µM
TGI [15]: > 100 µM
GI50 [57]: 6.02 µM
TGI [57]: 48.8 µM
GI50 [17]: 0.0431 µM
TGI [17]: 11.5 µM
GI50 [18]: 0.063 µM
TGI [18]: > 100 µM
GI50 [19]: 0.0306 µM
TGI [19]: 30.5 µM
GI50 [20]: 0.0459 µM
TGI [20]: > 100 µM
GI50 [21]: 0.0376 µM
TGI [21]: > 100 µM
GI50 [22]: 0.0696 µM
TGI [22]: 48.1 µM
GI50 [23]: 0.061 µM
TGI [23]: 40.8 µM
GI50 [24]: 0.0381 µM
TGI [24]: > 100 µM
GI50 [25]: 0.0367 µM
TGI [25]: > 100 µM
GI50 [26]: 0.0301 µM
TGI [26]: > 100 µM
GI50 [27]: 0.0382 µM
TGI [27]: 31.6 µM
GI50 [28]: 0.0362 µM
TGI [28]: 37.2 µM
GI50 [58]: 0.047 µM
TGI [58]: 44.1 µM
GI50 [29]: 0.036 µM
TGI [29]: > 100 µM
GI50 [30]: 0.0209 µM
TGI [30]: 0.058 µM
GI50 [31]: 0.024 µM
TGI [31]: 0.0598 µM
GI50 [32]: 0.0408 µM
TGI [32]: 28.9 µM
GI50 [33]: 3.98 µM
TGI [33]: > 100 µM
GI50 [34]: 0.0498 µM
TGI [34]: > 100 µM
GI50 [35]: 0.0332 µM
TGI [35]: 27.8 µM
GI50 [36]: 0.2 µM
TGI [36]: > 100 µM
GI50 [37]: 0.0492 µM
TGI [37]: 12 µM
GI50 [38]: 0.0417 µM
TGI [38]: 51.1 µM
GI50 [39]: 0.3 µM
TGI [39]: > 100 µM
GI50 [40]: 0.0324 µM
TGI [40]: 18.9 µM
GI50 [41]: 0.0221 µM
TGI [41]: 0.0567 µM
GI50 [42]: 0.0483 µM
TGI [42]: > 100 µM
GI50 [43]: 13.4 µM
TGI [43]: > 100 µM
GI50 [44]: 0.0354 µM
TGI [44]: 0.161 µM
GI50 [45]: 0.0325 µM
TGI [45]: 65.2 µM
GI50 [46]: 0.0413 µM
TGI [46]: > 100 µM
GI50 [47]: 0.284 µM
TGI [47]: > 100 µM
GI50 [48]: 0.0444 µM
TGI [48]: 51.7 µM
GI50 [49]: 0.0316 µM
TGI [49]: 25.7 µM
GI50 [50]: 0.0428 µM
TGI [50]: > 100 µM
GI50 [51]: 24.3 µM
TGI [51]: > 100 µM
GI50 [52]: 15.1 µM
TGI [52]: > 100 µM
GI50 [53]: 0.034 µM
TGI [53]: > 100 µM
GI50 [54]: 13 µM
TGI [54]: > 100 µM
GI50 [55]: 0.0825 µM
TGI [55]: 42.3 µM
GI50 [56]: 0.134 µM
TGI [56]: 23.7 µM

From PubChem BioAssay (NCI)
